Target: T1, IKKβ (Homo sapiens, UniProt O14920)
T1 construct: purchased Upstate Biotechnology Inc. 14-485
T1 sequence (O14920 1-756): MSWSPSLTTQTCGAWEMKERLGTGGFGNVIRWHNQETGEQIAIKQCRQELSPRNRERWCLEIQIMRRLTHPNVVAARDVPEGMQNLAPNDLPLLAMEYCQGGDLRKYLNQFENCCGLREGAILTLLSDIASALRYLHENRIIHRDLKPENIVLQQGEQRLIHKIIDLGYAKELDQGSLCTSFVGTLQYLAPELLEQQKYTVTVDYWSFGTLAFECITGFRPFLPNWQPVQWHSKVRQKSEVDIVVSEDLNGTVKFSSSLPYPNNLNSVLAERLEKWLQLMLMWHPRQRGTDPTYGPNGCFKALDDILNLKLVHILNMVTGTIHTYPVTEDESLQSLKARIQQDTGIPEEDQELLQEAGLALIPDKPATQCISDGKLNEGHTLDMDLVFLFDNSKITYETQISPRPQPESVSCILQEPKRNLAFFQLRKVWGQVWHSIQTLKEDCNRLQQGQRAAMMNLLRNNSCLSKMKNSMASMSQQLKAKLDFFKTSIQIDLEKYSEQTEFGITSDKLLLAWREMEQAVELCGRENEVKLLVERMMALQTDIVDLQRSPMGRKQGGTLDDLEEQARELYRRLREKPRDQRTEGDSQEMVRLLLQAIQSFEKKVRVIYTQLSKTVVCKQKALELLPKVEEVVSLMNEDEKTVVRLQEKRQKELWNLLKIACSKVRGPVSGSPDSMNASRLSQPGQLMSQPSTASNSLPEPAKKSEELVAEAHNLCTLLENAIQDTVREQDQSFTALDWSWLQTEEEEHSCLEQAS
Assay: IKKβ inhibition assay by fluorescence polarization (IMAP kit)
Type: biochemical
Conditions: test compound at 1 μM; inhibition rate exceeding 100% is indicated as 100%
Description: In order to evaluate IKKβ inhibitory activity of the present compounds, an IKKβ inhibition assay by the fluorescence polarization method was conducted.
The assay was conducted using IMAP™ IKKβ assay kit (manufactured by Molecular Devices Corporation, catalogue No. R8115) or IMAP™ FP Screening Express kit (manufactured by Molecular Devices Corporation, catalogue No. R8127) and in accordance with the protocol attached to each kit. The specific methods are described below. (Preparation of Reagents)
1) Complete Reaction Buffer: a complete reaction buffer was so prepared as to obtain a final concentration of 10 mM Tris-HCL (pH 7.2), 10 mM magnesium chloride, 0.1% bovine serum albumin, and 1 mM dithiothreitol.
2) Substrate Working Solution: 400 nM of a substrate working solution was prepared by dissolving and diluting a fluorescein-labeled IKKβ substrate peptide (amino acid sequence: GRHDSGLDSMK) with the complete reaction buffer.
3) Enzyme Working Solution: 0.2 units/mL of an enzyme working solution was prepared by diluting IKKβ solution (manufactured by Upstate Biotechnology Inc., catalogue No. 14-485) with the complete reaction buffer.
4) ATP Working Solution: 8 μM of an ATP working solution was prepared by dissolving ATP into ultrapure water followed by diluting it with the complete reaction buffer.
5) IMAP binding solution: After diluting an IMAP binding buffer with ultrapure water, an IMAP binding solution was prepared by diluting an IMAP binding reagent with the diluted IMAP binding buffer.
A test compound was dissolved in dimethylsulfoxide followed by diluting it with the complete reaction buffer to prepare 4 μM of a test compound solution.
1) To a 384-well plate, the test compound solution, the enzyme working solution, the substrate working solution, and the ATP working solution were added in an amount of 5 μL per well.
2) Incubation was performed at a room temperature for 60 minutes under light shielding.
3) The IMAP binding solution was added in an amount of 60 μL per well.
4) Incubation was performed at a room temperature for 30 minutes under light shielding.
5) Fluorescence polarization value of each well was measured by using Analyst™ HT (multimode plate reader manufactured by Molecular Devices Corporation) and Criterion Host Software v2.00 (manufactured by Molecular Devices Corporation).
6) Operations were performed in the same manner as in 1) to 5) except for changing the test compound to 0.4% dimethylsulfoxide. The obtained result was designated as a control.
7) Operations were performed in the same manner as in 1) to 5) except for changing the test compound and the enzyme working solution to 0.4% dimethylsulfoxide and the complete reaction buffer, respectively. The obtained result was designated as a background.
An IKKβ inhibition rate (%) was calculated by the following equation.
IKKβ inhibition rate (%)=100×{1−(fluorescence polarization value of test compound−fluorescence polarization value of background)/(fluorescence polarization value of control−fluorescence polarization value of background)}

`NC(=O)Nc1[nH]c2cc(-c3ccc(CNC4CC4)o3)ccc2c1C(N)=O` [Compound 13-15, 2-Aminocarbonylamino-6-(5-cyclopropylaminomethylfuran-2-yl)indole-3-carboxamide] was tested, and the inhibition at 1 µM was 100%.

Work on `CNCc1ccc(-c2ccc3c(C(N)=O)c(NC(N)=O)[nH]c3c2)s1` [Compound 13-24, 2-Aminocarbonylamino-6-(5-methylaminomethylthiophen-2-yl)indole-3-carboxamide] yielded an inhibition at 1 µM of 98%.

`NC(=O)Nc1[nH]c2cc(CO)ccc2c1C(N)=O` [Compound 16-1, 2-Aminocarbonylamino-6-hydroxymethylindole-3-carboxamide] gave an inhibition at 1 µM of 78%.

In the case of `NC(=O)Nc1[nH]c2cc(C3SCCS3)ccc2c1C(N)=O` [Compound 20-1, 2-Aminocarbonylamino-6-(1,3-dithiolan-2-yl)indole-3-carboxamide], the inhibition at 1 µM is reported as 100%.

Molecule `NC(=O)Nc1[nH]c2cc(C(=O)N3CCCC3)ccc2c1C(N)=O` [Compound 22-2] has an inhibition at 1 µM of 70%.

With `NC(=O)Nc1[nH]c2cc(C(=O)NCc3ccccc3)ccc2c1C(N)=O` [Compound 22-9] the inhibition at 1 µM was 100%.

In the case of `NC(=O)Nc1[nH]c2cc(CN3CCCC3)ccc2c1C(N)=O` [Compound 24-2], the inhibition at 1 µM is reported as 100%.

In the case of `CCSCc1ccc2c(C(N)=O)c(NC(N)=O)[nH]c2c1` [Compound 25-3], the inhibition at 1 µM is reported as 100%.
